Assay results from patent US20220040253A1, “Agonists of Human Kisspeptin Receptor for Modulating Sexual Desire” (Université de Liège, priority 2019, published 2022).
Entries after “also recorded” stand apart in the source; their conditions may differ. No end group written: not given here.

Experiments:
[1] = tested on: female mice; test: Mate preference test (three-compartment box, preference score); type: in vivo, mouse
Description: (§1) Unless otherwise stated, females were ovariectomized in adulthood (>8 weeks of age) under general anesthesia after either subcutaneous (sc) injections of ketamine (80 mg kg^−1 per mouse) and medetomidine (Domitor, Pfizer, 1 mg kg^−1 per mouse) or under 5% isoflurane, in order to control for endogenous hormone concentrations and to prevent pregnancies upon repeated testing. At the same time, all females received a 5 mm-long Silastic capsule (inner diameter: 1.57 mm; outer diameter: 2.41 mm) containing crystalline 17β-estradiol (diluted 1:1 with cholesterol) subcutaneously in the neck. The dose of E2 (E8875, Sigma) was based on a previous study^62 showing that this treatment leads to estradiol levels similar to mice in estrus. At the end of surgery, females under ketamine/medetomidine anesthesia received a sc injection of atipamezole (Antisedan, Pfizer, 4 mg kg^−1 per mouse) to antagonize medetomidine-induced effects and accelerate recovery. In order to induce sexual receptivity at the day of testing, all females received a subcutaneous injection with progesterone (500 μg, P0130, Sigma) 3 h before the onset of the behavioral test, unless stated otherwise (for overview of all the different hormone treatments, see Table 1).
(§2) Kisspeptin-10 (Kp-10) was synthesized in Strasbourg, France (Sequence: Tyr-Asn-Trp-Asn-Ser-Phe-Gly-Leu-Arg-Tyr-NH2, NeoMPS; weight=25.7 mg). To determine whether kisspeptin stimulated female sexual behavior in wildtype C57BL/6J mice, females received a sc injection of Kp-10 at the dose of 0.52 μg kg^−1 (injection volume 100 μl) 2h before the lordosis test. Each animal was used as its own control, i.e. the animal was injected one day with Kp-10 and the other day with saline. Females were not injected with progesterone in this particular experiment. Injections were separated by at least 3 days.
Two hours before mate preference test, female mice received a single sc injection of GnRH (0.025 mg kg^−1, Polypeptide Laboratories France SAS, SC087).
S-nitroso-N-acetyl-DL-Penicillamine (SNAP) (N398-Sigma) is a NO donor. […]
To assess mate preferences shown in response to auditory and olfactory stimuli, we used a box (60 cm long×30 cm high×13 cm wide) that was divided into three compartments using perforated opaque partitions. […] The time the subject spent poking her nose through the holes of the partition or actively sniffing the bottom of the partition in front of the female versus male stimulus animal was recorded. A preference score was calculated by dividing the time spent investigating the male compartment minus the time spent investigating the female compartment by the total time spent investigating both compartments. […]

[2] = tested on: female mice; test: Lordosis test without photostimulation (lordosis quotient); type: in vivo, mouse
Description: as §1, with “1). […]” for “1).”
as §2, with “days. […]” for “days.”
Females were subjected to weekly lordosis tests in a Plexiglas aquarium (37 cm long×17 cm high×21 cm wide). A sexually experienced male was placed alone in the aquarium and allowed to adapt for 15 min. Subsequently, 3 h after receiving a subcutaneous progesterone injection (500 μg, P0130, Sigma) to induce behavioral estrus, the lordosis responses of the female to the mounts of the stimulus male were recorded. The test lasted until the female received 10 mounts or 10 min had elapsed. For the first experiment (mating-induced Fos activation) ovary intact females were paired with males during 30 minutes. […] Before each experimental condition (drug injection, cell ablation, optogenetic stimulation), all females were subjected to at least three lordosis tests (with progesterone) in order to acquire sufficient sexual experience and thus a significant LQ. Tests were performed during the dark phase of the light cycle (5 h after lights out; for details, see^67). For all details on the different hormone treatments (estradiol versus estradiol+progesterone), see Table 1.

[3] = tested on: human female patients diagnosed with HSDD; test: Vaginal photoplethysmography (vaginal blood flow) while watching erotic or neutral images; type: in vivo; settings: single sc injection 6.4 nmol/kg
Description: 20 human female patients diagnosed with HSDD receive either a single subcutaneous (sc) injection of kisspeptin-54 (SEQ ID NO: 17) at a dose of 6.4 nmol/kg of body weight or a sc injection of saline (i.e. control). The sexual desire of the patients is measured using vaginal photoplethysmography, which has been used to assess female genital arousal. It consists of a tampon-sized acrylic device containing a light emitting diode and a phototransistor to detect light to measure vaginal blood flow with increased sexual desire leading to increased vaginal blood flow. The sexual desire of the patients is scored starting 15 minutes after administration of sc kisspeptin or saline when watching either erotic images or neutral images. […] Any effects of kisspeptin on sexual desire disappear by 4 h after the injection.

[4] = tested on: human female patients diagnosed with HSDD; test: Brain activation by BOLD MRI while watching erotic pictures; type: in vivo; settings: single sc injection 6.4 nmol/kg; scan 30 minutes after injection; versus saline session
Description: 20 human female patients diagnosed with HSDD receive either a single subcutaneous (sc) injection of kisspeptin-54 (SEQ ID NO: 17) at a dose of 6.4 nmol/kg of body weight or a sc injection of a saline (i.e. control). The sexual desire of the patients is measured by determining their brain activation using magnetic resonance imaging (MRI) with the blood-oxygenation-level-dependent (BOLD) technique to identify and quantify brain regions associated with visually evoked sexual arousal in women. All female patients are subjected to two sessions on separate days with at least 1 month in between the sessions to act as their own control. They receive in one session kisspeptin-54 and in the other one saline, the order will be randomized. Female patients are positioned into the MRI scanner 30 minutes after the sc injection and three dimensional images are taken of the brain when watching a series of erotic pictures as well as more neutral pictures to serve as control condition using an event-related design. The task is followed by an anatomical scan in which high resolution T1-weighted images are taken to determine the anatomical boundaries of the activation observed during the visual task.

For “GnRH: GnRH from Polypeptide Laboratories France SAS, SC087 (QHWSYGLRPG; Gonadoliberin-1; UniProt P01148 24-33, looked up) [reference compound]”, which “male-directed preference (preference score)” value (“male-directed preference” for short) ([1]; GnRH::Cre, Dicer loxP/loxP females (OVX+E), single sc injection 0.025 mg kg^-1, P=0.01, FIG. 9a) is on record?
Its value is “induced a male-directed preference; also recorded: restored this behavior”.

What about the lordosis behavior ([2]; Kiss-/- (OVX+E) females, single injection, P=0.65, FIG. 9c) of the same substance?
Its lordosis behavior is “failed to stimulate lordosis behavior”.

What about the lordosis behavior ([2]; nNOS-/- (OVX+E) females, sc injection, P=0.19, FIG. 11c) of the same substance?
The lordosis behavior was “failed to restore lordosis behavior; also recorded: failed to stimulate lordosis behavior”.

With “Tyr-Asn-Trp-Asn-Ser-Phe-Gly-Leu-Arg-Tyr-NH2 (YNWNSFGLRY-NH2) [Kp-10, Kisspeptin-10 synthesized in Strasbourg (NeoMPS), the decapeptide injected in mice]” as the substance, how does the “male-directed preference” value ([1]; GnRH::Cre, Dicer loxP/loxP females (OVX+E+P), sc injection, P=0.38, FIG. 9a) read?
The value was “failed to elicit a male-directed preference”.

What about the “male-directed preference” value ([1]; Kiss-/- (OVX+E+P) females, single sc injection 0.52 μg kg^-1, P<0.001, FIG. 1b) of the same substance?
The value was “induced a very strong preference for the male; also recorded: triggered a male-directed preference”.

And the “male-directed preference” value ([1]; KissIC Cre+ females (OVX+E+P) after AAV-Casp3 ablation of RP3V kisspeptin neurons, single sc injection, P=0.041, FIG. 1e)?
Its value is “induced a male-directed preference; also recorded: sufficient to induce a male-directed preference”.

And the lordosis behavior ([2]; Kiss-/- (OVX+E+P) females with lordosis deficits, single sc injection, FIG. 4d)?
Its lordosis behavior is “induced lordosis behavior; also recorded: could be reversed”.

What about the lordosis behavior ([2]; WT C57BL/6J OVX+E females (no progesterone), sc 0.52 μg/kg 2 h before test, P<0.001, FIG. 4b) of the same substance?
The lordosis behavior was “robustly stimulated lordosis behavior”.

And the lordosis behavior ([2]; WT C57Bl6 (OVX+E+P) females, intracerebroventricular 10.4 ng/kg 1 h before test, P=0.012, FIG. 6)?
Its lordosis behavior is “stimulates lordosis behavior; also recorded: also stimulated lordosis behavior”.

And the lordosis behavior ([2]; nNOS-/- (OVX+E+P) females, sc injection, P=0.56, FIG. 11c)?
Its lordosis behavior is “failed to restore lordosis behavior”.

What about the lordosis behavior ([2]; nNOS-/- (OVX+E+P) females, sc injection, P=0.56, FIG. 11c, listed as KP-10) of the same substance?
The lordosis behavior was “failed to stimulate lordosis behavior”.

With “kisspeptin-54: human kisspeptin-54, SEQ ID NO: 17, amino acids 68 to 121 of NP_002247.3 (GTSLSPPPESSGSPQQPGLSAPHSRQIPAPQGAVLVQREKDLPNYNWNSFGLRF; listed as Homo sapiens)” as the substance, how does the “time by which effects on sexual desire disappear after the injection” value [3] read?
The value was ≤ 4 h.

And the “vaginal blood flow when watching neutral images” value ([3]; scored from 15 minutes after administration)?
The value was “not when watching neutral images”.

What about the “vaginal blood flow when watching erotic images” value ([3]; scored from 15 minutes after administration, versus saline) of the same substance?
Its value is “show increased vaginal blood flow”.

And the “brain activation when watching the images (BOLD MRI)” value [4]?
The value was “show increased brain activation”.
